Consider one molecule from patent US20100234221A1, “USE OF TETRAMIC ACID DERIVATIVES WITH FERTILIZERS” (BAYER CROPSCIENCE AG, priority 2006, published 2010).

Assay [1] concerns cotton aphids (Aphis gossypii). Briefly: Example B-1: spray treatment of cotton plants heavily infested by cotton aphids. The format is in vivo. To be noted: AHL or NH4NO3 12.5 g/l, RME 1 g ai/l where added. As to the method:
To prepare a suitable product solution, 1 part by weight of formulated goods (for example an oil suspension OD 150 prepared according to known methods) is mixed with water to give the desired concentration. The desired fertilizer or penetrant is added in a defined amount and mixed in well.
Cotton plants (Gossypium herbaceum) which are heavily infested by the cotton aphids (Aphis gossypii) are treated by spraying with the product solution at the desired concentration.
After the desired period of time, the kill in % is determined. Here, 100% means that all aphids have been killed; 0% means that none of the aphids have been killed.

In assay [2] the test system is Aphis gossypii. As to the kind of experiment: Use Example A: field plots of cotton sprayed against Aphis gossypii. The format is in vivo. To be noted: cotton FM966LL field plots, I-4 44 g of a.i./ha, Dyne-amic 0.455 % (v/v), UAN 0.7 % (v/v) where added. The protocol: In three replications, plots of a size of about 66 m^2 with cotton of the cultivar FM966LL are treated against Aphis gossypii. Here, the active compound I-4 (as 1500D formulation) is applied with a sprayer (High Clearance Sprayer, High Boy) at the stated application rates. The amount of water applied is about 150 l/ha. An adjuvant and/or a fertilizer (UAN=ammonium nitrate/urea solution with 28% by weight of nitrogen) are added to the spray liquor at the stated concentration. Here, it becomes evident that the composition according to the invention is equivalent to a composition comprising an adjuvant known to be efficient.

Regarding `CCOC(=O)OC1=C(c2cc(C)ccc2C)C(=O)N[C@]12CC[C@@H](OC)CC2` [Compound I-4], the “Kill in % after 7d” value came out at 25% in assay [1] (I-4 0.96 g ai/ha) and 90% in assay [1] (I-4 4.8 g ai/ha). The “Effect (% Abbott) After 2 days” value in assay [2] (after 2 days) amounted to 66.7 % Abbott. Besides, the “Effect (% Abbott) After 5 days” value in assay [2] (after 5 days) was 65.8 % Abbott. In addition, the “Effect (% Abbott) After 9 days” value in assay [2] (after 9 days) is listed as 13.9 % Abbott.
